Assay results taken from patent publication US20120022142A1, “RNA Interference Mediated Inhibition of Signal Transducer and Activator of Transcription 1 (STAT1) Gene Expression Using Short Interfering Nucleic Acid (siNA)” (Merck Sharp & Dohme Corp., priority 2009, published 2012).
[invAb] = inverted abasic unit; m = 2'-O-methyl; r = 2'-OH (RNA); f = 2'-fluoro

Tests used:
[1] = test system: STAT1 human mRNA; assay: Initial screen of siNAs: STAT1 mRNA knock-down in A549 cells (96-well transfection, Taqman RT-PCR); format: cell-based; conditions: 10 nM siNA, 24 hrs, normalized against GAPDH, average of 2 experiments
Description: A549 (human; ATCC cat# CCL-185): Cells were cultured at 37° C. in the presence of 5% CO2 and grown in Ham's F12K medium with 2 mM L-glutamine adjusted to contain 1.5 g/L sodium bicarbonate and supplemented with fetal bovine serum at a final concentration of 10% and 100 μg/mL of streptomycin and 100 U/mL penicillin.
Cells were plated in all wells of a tissue-culture treated, 96-well plate at a final count of 5000 cells/well in 100 μL of the appropriate culture media. The cells were cultured for 24 hours after plating at 37° C. in the presence of 5% CO2.
After 24 hours, complexes containing siNA and RNAiMax were created as follows: A solution of RNAiMax diluted 33-fold in OPTI-MEM was prepared. In parallel, solutions of the siNAs for testing were prepared to a final concentration of 120 nM in OPTI-MEM. After incubation of RNAiMax/OPTI-MEM solution at room temperature for 5 min, an equal volume of the siNA solution and the RNAiMax solution were added together for each of the siNAs.
This solution was incubated at room temperature for 20 minutes. After incubation, 20 uL of the solution was added to each of the relevant wells. The final concentration of siNA in each well was 10 nM and the final volume of RNAiMax in each well was 0.3 ul.
The time of incubation with the RNAiMax-siNA complexes was 24 hours and there was no change in media between transfection and harvesting, unless otherwise indicated.
RNA was extracted from a 96-well plate using the TaqMan® Gene Expression Cells-to-CT™ Kit (Cat# 4399002) with a modified protocol. Briefly, a 60 uL (1 plate) or 110 uL (2 plates) of the Lysis Solution with DNase I was dispensed into each well of the Lysis Buffer Plate (twin.tec full skirt plate). The lysis buffer and stop plates were stored at 4° C. until the cells were washed.
The culture medium was aspirated and discarded from the wells of the culture plate. 50 uL of chilled DPBS was added to each well, then aspirated and discarded. The lysis was performed automatically using a BioMek FX instrument and method. After the Biomek method was completed, the lysis plate was incubated for 2 min at room temperature. The lysis plate can be stored for 2 hours at 4° C., or at −20° C. or −80° C. for two months.
Each well of the reverse transcription plate required 10 uL of 2× reverse transcriptase Buffer, 1 uL of 20× reverse transcription enzyme and 2 uL of nuclease-free water. The reverse transcription master mix was prepared by mixing 2× reverse transcription buffer, 20× reverse transcription enzyme mix, and nuclease-free water. 13 uL of the reverse transcription master mix was dispensed into each well of the reverse transcription plate (semi-skirted). A separate reverse transcription plate was prepared for each cell plate. The plate was loaded onto a Biomek NX or Biomek FX Dual-96 and the Biomek method was run. The program is programmed to automatically added 7 uL of lysate from the cell lysis procedure described above into each well of the reverse transcription plate. The plate is sealed and spun on a centrifuge (1000 rpm for 30 seconds) to settle the contents to the bottom of the reverse transcription plate. The plate is placed in a thermocycler at 37° C. for 60 min, 95° C. for 5 min, and 4° C. until the plate is removed from the thermocycler. Upon removal, if not used immediately, the plate was frozen at −20° C.
(§1) A series of probes and primers were used to detect the various mRNA transcripts of the genes of β-Actin (human cell line only), and of STAT1 and GAPDH in mouse and human cell lines. All Taqman probes and primers for the experiments here-in described were supplied as pre-validated sets by Applied Biosystems, Inc. (see Table 2).
(§2) The assays were performed on an ABI 7900 instrument, according to the manufacturer's instructions.
Within each experiment, the baseline was set in the exponential phase of the amplification curve, and based on the intersection point of the baselines with the amplification curve, a Ct value was assigned by the instrument. […]

[2] = test system: STAT1 mRNA; assay: Efficacy (% KD) and potency (IC50) of STAT1 mRNA knockdown of siNA leads in NIH3T3 cells; format: cell-based, mouse; conditions: mean ± S.D.; for IC50: STAT1 mRNA knockdown, read-out: Mouse (NIH3T3) IC50; for Mouse (NIH3T3) avg % KD: STAT1 mRNA, 30 nM siNA, at least three experiments
Description: NIH 3T3 (mouse; ATCC cat# CRL-1658): Cells were cultured at 37° C. in the presence of 5% CO2 and grown in Dulbecco's modified Eagle's medium (DMEM) with 4 mM L-glutamine adjusted to contain 1.5 g/L sodium bicarbonate and 4.5 g/L glucose and supplemented with fetal bovine serum at a final concentration of 10%, 100 μg/mL of streptomycin, and 100 U/mL penicillin.
as §1, §2
(§3) The expression level of the gene of interest and % knock-down was calculated using Comparative Ct method: […]
(§4) All calculations of IC50s were performed using SigmaPlot 10.0 software. The data were analyzed using the sigmoidal dose-response (variable slope) equation for simple ligand binding. In all of the calculations of the % knock-down, the calculation was made relative to the normalized level of expression of the gene of interest in the samples treated with the non-targeting control (Ctrl siNA) unless otherwise indicated.
(§5) Certain siNAs were further analyzed for efficacy in human A549 cells and mouse NIH3T3 cells. Percent KD/reduction is represented as mean±S.D. IC50 is represented as mean±S.D. The date is summarized from at least three separate experiments and within each experiment, the data point is calculated from an n=2. The final concentration of siNA used was 30 nM.

[3] = test system: STAT1 mRNA; assay: Efficacy (% KD) and potency (IC50) of STAT1 mRNA knockdown of siNA leads in A549 cells; format: cell-based, human; conditions: for Human (A549) avg % KD: STAT1 mRNA, 30 nM siNA, at least three experiments
Description: A549 cells were plated in 6-well plates at final counts of 70,000 cells/well in 2 ml of complete growth media (Ham's F12, Cellgro Cat# 10-080-CV+10% FBS). Transfection was performed using 2.5 uL of RNAiMax (Invitrogen Cat# 13778-150) per well. Final concentration of siNAs was 30, 3, 0.3, 0.03, 0.003, and 0.0003 nM done in duplicate. The siNAs were incubated for 24-72 hours. The duplicate samples were pooled to prepare protein lysates and RNA using the “PARIS” Protein and RNA Isolation System from Ambion, Cat# 1921. The total protein in the lysates was measured using a Bradford Dye Reagent (Bio-Rad, Cat# 500-0205).SDS-PAGE/Western Blotting was performed on the on the protein samples and RT-PCR on the RNA samples.
as §1, §2, §3, §4, §5

[4] = test system: STAT3 mRNA; assay: Effect of STAT1 siRNAs on expression of STAT3 mRNA in A549 cells (quantitative RT-PCR); format: cell-based, human; conditions: 1 nM siRNA, normalized to GAPDH
Text: as §1
The levels of expression of STAT3 were normalized to the level of GAPDH. There was no significant effect (p>0.05) of treatment with any of the lead STAT1 siRNAs on the expression human or mouse STAT3 mRNA at 1 nM (10 to 100 times the IC50s of the siRNAs).

[5] = A549 cells, Table 5, read-out: IC50 vs. STAT1 mRNA
[6] = STAT1 mRNA knockdown, mean ± S.D., read-out: Human (A549) IC50

Substance	% KD Human [1] [%]	IC50 [2] [nM]	Mouse (NIH3T3) avg % KD [2] [%]	IC50 [3, 5] [nM]	IC50 [3, 6] [nM]	Human (A549) avg % KD ([3]; mean ± S.D.) [%]	STAT3 % KD at 1 nM [4] [%]
25368-DC: STAT1 siNA duplex, human target site 782; modified strands SEQ ID NO: 73 and 74 (chain 1 GUAAAGUCAGAAAUGUGAATT; chain 2 UUCACAUUUCUGACUUUACUU; chain 1: DNA at AGT, 2'-fluoro at CU, [invAb] at 5' end, 3' end, backbone not given here; chain 2: sugars from the 5' end rrrmfmfffffmmffffmfmm, backbone not given here)	91	0.072 ± 0.023	89.9 ± 6.0	0.097 ± 0.018	0.01 ± 0.0064	89.1 ± 1.8	−2
25372-DC: STAT1 siNA duplex, human target site 968; modified strands SEQ ID NO: 81 and 82 (chain 1 UUGACAAUAAGAGAAAGGATT; chain 2 UCCUUUCUCUUAUUGUCAAUU; chain 1: DNA at AGT, 2'-fluoro at CU, [invAb] at 5' end, 3' end, backbone not given here; chain 2: sugars from the 5' end rrrffffffffmffmffmmmm, backbone not given here)	92	0.182 ± 0.051	87.3 ± 7.2	0.032 ± 0.014	0.025 ± 0.009	86.0 ± 2.0	3
25367-DC: STAT1 siNA duplex, human target site 966; modified strands SEQ ID NO: 71 and 72 (chain 1 GCUUGACAAUAAGAGAAAGTT; chain 2 CUUUCUCUUAUUGUCAAGCUU; chain 1: DNA at AGT, 2'-fluoro at CU, [invAb] at 5' end, 3' end, backbone not given here; chain 2: sugars from the 5' end rrrffffffmffmffmmmfmm, backbone not given here)	91	0.16 ± 0.034	84.6 ± 2.6	0.01 ± 0.0064	0.032 ± 0.014	88.6 ± 1.1	12
25369-DC: STAT1 siNA duplex, human target site 602; modified strands SEQ ID NO: 75 and 76 (chain 1 GGAAAAGCAAGCGUAAUCUTT; chain 2 AGAUUACGCUUGCUUUUCCUU; chain 1: DNA at AGT, 2'-fluoro at CU, [invAb] at 5' end, 3' end, backbone not given here; chain 2: sugars from the 5' end rrrffmfmfffmfffffffmm, backbone not given here)	92	0.58 ± 0.109	60.8 ± 3.5	0.012 ± 0.002	0.097 ± 0.018	88.8 ± 3.1	−2
25351-DC: STAT1 siNA duplex, human target site 2249; modified strands SEQ ID NO: 39 and 40 (chain 1 CCUACACGAAGAAAGAACUTT; chain 2 AGUUCUUUCUUCGUGUAGGUU; chain 1: DNA at AGT, 2'-fluoro at CU, [invAb] at 5' end, 3' end, backbone not given here; chain 2: sugars from the 5' end rrrfffffffffmfmfmmmmm, backbone not given here)	90	0.248 ± 0.086	85.1 ± 3.5	0.025 ± 0.009	0.012 ± 0.002	91.7 ± 0.1	8
